{"source": "EPA's CvTdb concentration-time database (doi:10.1093/toxsci/kfy020)", "test_in_all_cases": "concentration in plasma after dosing", "key": {"rat [1]": {"tested_on": "rat", "settings": "dosed: Dimethenamid, 1.0000000000 mg/kg, iv, male, Sprague-Dawley"}, "rat [2]": {"tested_on": "rat", "settings": "dosed: Dimethenamid, 1.0000000000 mg/kg, iv, male, Sprague-Dawley", "remark": "listed apart in the source"}, "rat [3]": {"tested_on": "rat", "settings": "dosed: Dimethenamid, 5.0000000000 mg/kg, oral, male, Sprague-Dawley"}, "rat [4]": {"tested_on": "rat", "settings": "dosed: Dimethenamid, 5.0000000000 mg/kg, oral, male, Sprague-Dawley", "remark": "listed apart in the source"}, "rat [5]": {"tested_on": "rat", "settings": "8 h; dosed: Dimethenamid; 5.0000000000 mg/kg; oral; male; Sprague-Dawley"}, "rat [6]": {"tested_on": "rat", "settings": "dosed: Dimethenamid, male, Sprague-Dawley"}}}
{"smiles": "COCC(C)N(C(=O)CCl)c1c(C)csc1C", "note": "(centres undefined) [Dimethenamid]", "values": [{"measurement": "concentration in plasma", "setting": "rat [1]; 5 min", "result": 193, "unit": "ng/mL"}, {"measurement": "concentration in plasma", "setting": "rat [1]; 10 min", "result": 110, "unit": "ng/mL"}, {"measurement": "concentration in plasma", "setting": "rat [1]; 0.5 h", "result": 20.9, "unit": "ng/mL"}, {"measurement": "concentration in plasma", "setting": "rat [1]; 1 h", "result": 7.4, "unit": "ng/mL"}, {"measurement": "concentration in plasma", "setting": "rat [1]; 2 h", "result": 2.1, "unit": "ng/mL"}, {"measurement": "concentration in plasma", "setting": "rat [1]; 4 h", "result": 0.8, "unit": "ng/mL"}, {"measurement": "concentration in plasma", "setting": "rat [2]; 5 min", "result": 91.9, "unit": "ng/mL"}, {"measurement": "concentration in plasma", "setting": "rat [2]; 10 min", "result": 38.1, "unit": "ng/mL"}, {"measurement": "concentration in plasma", "setting": "rat [2]; 0.5 h", "result": 14.9, "unit": "ng/mL"}, {"measurement": "concentration in plasma", "setting": "rat [2]; 1 h", "result": 6.2, "unit": "ng/mL"}, {"measurement": "concentration in plasma", "setting": "rat [2]; 2 h", "result": 1.9, "unit": "ng/mL"}, {"measurement": "concentration in plasma", "setting": "rat [2]; 4 h", "result": 0.6, "unit": "ng/mL"}, {"measurement": "concentration in plasma", "setting": "rat [3]; 0.25 h", "result": 1.8, "unit": "ng/mL"}, {"measurement": "concentration in plasma", "setting": "rat [3]; 0.5 h", "result": 1.4, "unit": "ng/mL"}, {"measurement": "concentration in plasma", "setting": "rat [3]; 1 h", "result": 0.6, "unit": "ng/mL"}, {"measurement": "concentration in plasma", "setting": "rat [3]; 2 h", "result": 0.7, "unit": "ng/mL"}, {"measurement": "concentration in plasma", "setting": "rat [3]; 4 h", "result": 1, "unit": "ng/mL"}, {"measurement": "concentration in plasma", "setting": "rat [3]; 8 h", "result": 0.5, "unit": "ng/mL"}, {"measurement": "concentration in plasma", "setting": "rat [3]; 24 h", "result": 0.2, "unit": "ng/mL"}, {"measurement": "concentration in plasma", "setting": "rat [3]; 48 h", "result": 0.3, "unit": "ng/mL"}, {"measurement": "concentration in plasma", "setting": "rat [3]; 72 h", "result": 0.3, "unit": "ng/mL"}, {"measurement": "concentration in plasma", "setting": "rat [4]; 0.25 h", "result": 0.6, "unit": "ng/mL"}, {"measurement": "concentration in plasma", "setting": "rat [4]; 0.5 h", "result": 0.5, "unit": "ng/mL"}, {"measurement": "concentration in plasma", "setting": "rat [4]; 2 h", "result": 0.6, "unit": "ng/mL"}, {"measurement": "concentration in plasma", "setting": "rat [4]; 4 h", "result": 0.6, "unit": "ng/mL"}, {"measurement": "concentration in plasma", "setting": "rat [4]; 8 h", "result": 0.2, "unit": "ng/mL"}, {"measurement": "concentration in plasma", "setting": "rat [5]", "result": 287, "unit": "ng/mL"}, {"measurement": "concentration in plasma", "setting": "rat [6]; 5 min, 1.0000000000 mg/kg, iv", "result": 115, "unit": "ng/mL"}, {"measurement": "concentration in plasma", "setting": "rat [6]; 10 min, 1.0000000000 mg/kg, iv", "result": 60.7, "unit": "ng/mL"}, {"measurement": "concentration in plasma", "setting": "rat [6]; 0.25 h, 5.0000000000 mg/kg, oral", "result": 5.3, "unit": "ng/mL"}, {"measurement": "concentration in plasma", "setting": "rat [6]; 0.5 h, 1.0000000000 mg/kg, iv", "result": 19.3, "unit": "ng/mL"}, {"measurement": "concentration in plasma", "setting": "rat [6]; 0.5 h, 5.0000000000 mg/kg, oral", "result": 2, "unit": "ng/mL"}, {"measurement": "concentration in plasma", "setting": "rat [6]; 1 h, 1.0000000000 mg/kg, iv", "result": 7, "unit": "ng/mL"}, {"measurement": "concentration in plasma", "setting": "rat [6]; 1 h, 5.0000000000 mg/kg, oral", "result": 1.3, "unit": "ng/mL"}, {"measurement": "concentration in plasma", "setting": "rat [6]; 2 h, 1.0000000000 mg/kg, iv", "result": 1.4, "unit": "ng/mL"}, {"measurement": "concentration in plasma", "setting": "rat [6]; 2 h, 5.0000000000 mg/kg, oral", "result": 1.9, "unit": "ng/mL"}, {"measurement": "concentration in plasma", "setting": "rat [6]; 4 h, 1.0000000000 mg/kg, iv", "result": 0.8, "unit": "ng/mL"}, {"measurement": "concentration in plasma", "setting": "rat [6]; 4 h, 5.0000000000 mg/kg, oral", "result": 1.2, "unit": "ng/mL"}, {"measurement": "concentration in plasma", "setting": "rat [6]; 8 h, 1.0000000000 mg/kg, iv", "result": 0.3, "unit": "ng/mL"}, {"measurement": "concentration in plasma", "setting": "rat [6]; 8 h, 5.0000000000 mg/kg, oral", "result": 0.5, "unit": "ng/mL"}, {"measurement": "concentration in plasma", "setting": "rat [6]; 12 h, 5.0000000000 mg/kg, oral", "result": 0.3, "unit": "ng/mL"}, {"measurement": "concentration in plasma", "setting": "rat [6]; 24 h, 5.0000000000 mg/kg, oral", "result": 0.3, "unit": "ng/mL"}, {"measurement": "concentration in plasma", "setting": "rat [6]; 48 h, 5.0000000000 mg/kg, oral", "result": 0.3, "unit": "ng/mL"}, {"measurement": "concentration in plasma", "setting": "rat [6]; 72 h, 5.0000000000 mg/kg, oral", "result": 0.5, "unit": "ng/mL"}]}
